Values of other authors as cited in article PMC6048117 (Scientific Reports, 2018).
Like-named read-outs stand apart in the source and are kept apart here.

How the values were obtained:
[1] = tested on: MPTP model
[2] = tested on: nigral 6-OHDA partial or full lesion rat model

Substance	Neuroprotection in MPTP model ([1]; 25 nmol/kg)	Efficacy in nigral 6-OHDA partial or full lesion rat model [2]	Neuroprotection in MPTP model ([1]; 10 nmol/kg)
liraglutide (HAEGTFTSDVSSYLEGQAAKEFIAWLVRGRG; chains of the INN, looked up) [GLP-1R agonist]	did demonstrate neuroprotection	failed to demonstrate efficacy	
lixisenatide			did demonstrate neuroprotection
